Assay results: patent EP0158299A2, “Substituted phenylethyl derivatives, process for their preparation and pharmaceutical agents” (Merz & Co. GmbH & Co., priority 1984, dated 1985)
Converted amounts (≈) assume the structure as drawn. Where a name gives a salt, the structure may show the parent alone.

Tests used:
Type in all cases: cell-based
[1] = tested on: A.f.; experiment: serial dilution test, fungistatic activity (MIC); conditions: Pilzspezies A.f.; read-out: Minimale Hemmkonzentrationen
Text: (§1) Die erfindungemäßen Verbindungen wurden im Reihenverdünnungstest auf ihre fungistatische Wirksamkeit gegen verschiedene Pilzspezies und gegen verschiedene Bakterienstämme geprüft. Die so ermittelten minimalen Hemmkonzentrationen (MHK) sind in den folgenden Tabellen wiedergegeben: […]

[2] = tested on: T.r.; experiment: serial dilution test, fungistatic activity (MIC); conditions: Pilzspezies T.r.; read-out: Minimale Hemmkonzentrationen
Text: as §1

[3] = tested on: C.a.; experiment: serial dilution test, fungistatic activity (MIC); conditions: Pilzspezies C.a.; read-out: Minimale Hemmkonzentrationen
Text: as §1

[4] = tested on: T.m.; experiment: serial dilution test, fungistatic activity (MIC); conditions: Pilzspezies T.m.; read-out: Minimale Hemmkonzentrationen
Text: as §1

[5] = tested on: A.c.; experiment: serial dilution test, fungistatic activity (MIC); conditions: Pilzspezies A.c.; read-out: Minimale Hemmkonzentrationen
Text: as §1

[6] = tested on: M.c.; experiment: serial dilution test, fungistatic activity (MIC); conditions: Pilzspezies M.c.; read-out: Minimale Hemmkonzentrationen
Text: as §1

[7] = tested on: C.t.; experiment: serial dilution test, fungistatic activity (MIC); conditions: Pilzspezies C.t.; read-out: Minimale Hemmkonzentrationen
Text: as §1

[8] = tested on: Staphylococcus aureus; experiment: serial dilution test against bacterial strains (MIC); conditions: Bakterienstämme S.a. = Staphylococcus aureus; read-out: Minimale Hemmkonzentrationen
Text: as §1

[9] = tested on: Streptococcus pyogenes; experiment: as above; conditions: Bakterienstämme S.p. = Streptococcus pyogenes; read-out: Minimale Hemmkonzentrationen
Text: as §1

[10] = tested on: Streptococcus faecalis; experiment: as above; conditions: Enterococcus faecalis; Bakterienstämme S.f. = Streptococcus faecalis; read-out: Minimale Hemmkonzentrationen
Text: as §1

[11] = tested on: S.s.; experiment: serial dilution test, fungistatic activity (MIC); conditions: Pilzspezies S.s.; read-out: Minimale Hemmkonzentrationen
Text: as §1

SMILES | MIC [1] [mg/L] | MIC [2] [mg/L] | MIC [3] [mg/L] | MIC [4] [mg/L] | MIC [5] [mg/L] | MIC [6] [mg/L] | MIC [7] [mg/L] | MIC [8] [mg/L] | MIC [9] [mg/L] | MIC [10] [mg/L] | MIC [11] [mg/L]
FC(F)(Oc1ccc(CON=C(Cn2ccnc2)c2ccc(Cl)cc2Cl)cc1)C(Cl)Cl [Verbind. I, 1-(2,4-Dichlorphenyl)-2-(1H-imidazol-1-yl)-0-(4-(2,2-dichlor-1,1-difluorethoxy)benzyl)ethanonoxim-nitrat] | 12.5 (≈ 24.5 µM) | 6.25 (≈ 12.3 µM) | 0.1 (≈ 0.196 µM) | 6.25 (≈ 12.3 µM) | 1.6 (≈ 3.14 µM) | 3.1 (≈ 6.09 µM) | 0.8 (≈ 1.57 µM) | 6.25 (≈ 12.3 µM) | 0.8 (≈ 1.57 µM) | 12.5 (≈ 24.5 µM) | –
Clc1ccc(C(Cn2ccnc2)=NOCc2ccc(C3CC3(Cl)Cl)cc2)c(Cl)c1 (stereo not shown) [Verbind. II, 1-(2,4-Dichlorphenyl)-2-(1H-imidazol-1-yl)-0-(4-(2,2-di-chlorcyclopropyl)benzyl)ethanonoxim-nitrat] | 25 (≈ 53.3 µM) | 6.2 (≈ 13.2 µM) | 3.1 (≈ 6.61 µM) | 12.5 (≈ 26.6 µM) | – | – | 25 (≈ 53.3 µM) | – | – | – | 1.6 (≈ 3.41 µM)
Clc1ccc(C(Cn2ccnc2)OCc2ccc(C3CC3(Cl)Cl)cc2)c(Cl)c1 (stereo not shown) [Verbind. III, 1-(2,4-Dichlorphenyl)-1-(4-(2,2-dichlorcyclopropyl)benzyloxy)-2-(1H-imidazol-1-yl)ethan-nitrat] | 1.6 (≈ 3.51 µM) | 0.8 (≈ 1.75 µM) | 0.05 (≈ 0.11 µM) | 0.8 (≈ 1.75 µM) | – | – | 3.1 (≈ 6.8 µM) | – | – | – | 0.2 (≈ 0.438 µM)
FC(F)(Oc1ccc(COC(Cn2ccnc2)c2ccc(Cl)cc2Cl)cc1)C(Cl)Cl (stereo not shown) [Verbind. IV, 1-(2,4-Dichlorphenyl)-1-(4-(2,2-dichlor-1,1-difluor-ethoxy)benzyloxy)-2-(1H-imidazol-1-yl)ethan-hydrochlorid] | 3.1 | 0.1 | 0.1 | 0.1 | – | – | 0.1 | 3.1 | < 0.2 | 1.6 | –
FC(Cl)C(F)(F)Oc1ccc(COC(Cn2ccnc2)c2ccc(Cl)cc2Cl)cc1 (stereo not shown) [Verbind. VI, 1-(2,4-Dichlorphenyl)-1-(4-(2-chlor-1,1,2-trifluorethoxy)benzyloxy)-2-(1H-imidazol-1-yl)ethan-nitrat] | 1.6 (≈ 3.34 µM) | 0.8 (≈ 1.67 µM) | 0.05 (≈ 0.104 µM) | 0.8 (≈ 1.67 µM) | – | 0.2 (≈ 0.417 µM) | 1.6 (≈ 3.34 µM) | – | – | – | 0.1 (≈ 0.208 µM)
